Measurements reported in patent US20250041461A1, “[177LU] LUTETIUM-PSMA I&T COMPOSITION AND DOSIMETRY, KIT, METHOD OF MAKING, AND METHOD OF USING THEREOF” (Curium US LLC, priority 2023, published 2025).
Values joined by “and” are separate entries in the source; they are usually repeats but may differ in a detail not shown here. Equal entries are not always repeated.

Assay: Dosimetry sub-study, first 6 patients, cycle 1 (SPECT/CT, TIAC, OLINDA 2.2.3)
Format: in vivo, human
Conditions: for projected cumulative absorbed dose to the kidneys after 6 cycles: 7.4 GBq per cycle, number of cycles x absorbed dose at cycle 1
Experimental: Six subjects were administered a target dose of 7.4 GBq (mean 7.52±0.16 GBq) of ^177Lu-PSMA-I&T. Following the infusion, subjects underwent single photon emission computed tomography (SPECT)/computed tomography (CT) imaging at four timepoints (4 h, 24 h, 48 h, 168 h). Image data were analysed to compute time integrated activity coefficients (TIAC) in each organ of interest and/or with appreciable and meaningful ^177Lu-PSMA-I&T activity above background which included kidneys, bladder, liver, lumbar vertebrae L2-L4, lacrimal glands, salivary glands, intestine and whole body. To compute subject-specific organ doses, organ-level TIAC data were entered into Organ Level Internal Dose Assessment, OLINDA 2.2.3 and resulting organ doses for each target organ and whole-body effective dose were collated and averaged.
Patients received SPECT/CT imaging (anatomical coverage included the salivary gland and extended through the pelvis) following the injection of 7.4 (+/−10%) GBq of ^177Lu-PSMA-I&T (detailed injected doses are reported). All patients completed the first treatment cycle and the acquisition of images was carried out without any protocol deviation.
The imaging data was analyzed using Invicro's VivoQuant software, a validated software used in a 21 CFR § 11-compliant workflow. The general quantification approach was based on the principles detailed in MIRD Pamphlet No. 16 (Siegel J, Thomas S, Stubbs J, et al. MIRD pamphlet no. 16: Techniques for quantitative radiopharmaceutical biodistribution data acquisition and analysis for use in human radiation dose estimates. J Nucl Med. 1999; 40:37S-61S and MIRD Primer for Absorbed Dose Calculations, Revised Ed. J Nucl Med. 1991), No 23 (Dewaraja Y K, Frey E C, Sgouros G, et al. MIRD pamphlet No. 23: quantitative SPECT for patient-specific 3-dimensional dosimetry in internal radionuclide therapy. J Nucl Med. 2012; 53(8):1310-1325), and No 26 (Ljungberg M, Celler A, Konijnenberg M W, et al. MIRD Pamphlet No. 26: Joint EANM/MIRD Guidelines for Quantitative ^177Lu SPECT Applied for Dosimetry of Radiopharmaceutical Therapy. J Nucl Med. 2016; 57(1):151-162), as appropriate.
Each SPECT image was co-registered with its corresponding CT. Image calibration was performed to convert the counts measured on the SPECT images to activity (Bq) (Ljungberg et al. MIRD Pamphlet No. 26: Joint EANM/MIRD Guidelines for Quantitative ^177Lu SPECT Applied for Dosimetry of Radiopharmaceutical Therapy. J Nucl Med. 2016; 57(1):151-162). The same SPECT/CT system was used in each patient for the entirety of the dosimetry study.
Regions of interest (kidneys, bladder, liver, lumbar vertebrae L2-L4, lacrimal glands, salivary glands and whole body) were drawn on each dataset by a trained image analyst. Lumbar vertebrae L2-L4 was delineated on the CT images (Hindorf C, Glatting G, Chiesa C, Linden O, Flux G, Committee ED. EANM Dosimetry Committee guidelines for bone marrow and whole-body dosimetry. Eur J Nucl Med Mol Imaging. 2010; 37(6):1238-1250) to derived red marrow doses. For kidneys, an ROI was drawn on the SPECT image to include all the uptake seen in the kidneys. Similarly for lacrimal glands, all the uptake observed on the SPECT image at the lacrimal glands location was segmented.
Time-activity curves of the activity in each ROI as a function of time were plotted. These curves were normalized by the known injected activity to arrive at units of fraction of injected activity. Calculations of time-integrated activity coefficient (TIAC, in units of hours) were performed for each region of interest listed above.
Clearance of the tracer was derived from a data-appropriate fit of each organ TAC. The curve fit was optimized using the Akaike information criterion (AIC) and checked visually by an image scientist. Depending on the shape of the TAC, the data was fitted with the sum of one, two or three exponentials or using a rise and fall model. […]

O=C([O-])CC[C@H](NC(=O)N[C@@H](CCCCNC(=O)CCCCCCC(=O)NCCCC[C@@H](NC(=O)[C@@H](Cc1ccccc1)NC(=O)[C@@H](Cc1ccc(O)c(I)c1)NC(=O)CC[C@H](C(=O)[O-])N1CCN(CC(=O)[O-])CCN(CC(=O)[O-])CCN(CC(=O)[O-])CC1)C(=O)[O-])C(=O)[O-])C(=O)[O-].[177Lu+3].[H+].[H+].[H+].[H+].[H+] [^177Lu-PSMA I&T, (3S,7S,26R,29R,32R,37R)-29-benzyl-32-(4-hydroxy-3-iodobenzyl)-5,13,20,28,31,34-hexaoxo-37-(4,7,10-tris(carboxymethyl)-1,4,7,10-tetraazacyclododecan-1-yl)-4,6,12,21,27,30,33-heptaazaheptatriacontane-1,3,7,26,37-pentacarboxylic acid; lutetium-177 (III)]
Absorbed Dose, Adrenals, Mean (6 patients, cycle 1): 0.02 Gy/GBq | Absorbed Dose, Brain, Mean (6 patients, cycle 1): 0.01 Gy/GBq | Absorbed Dose, Esophagus, Mean (6 patients, cycle 1): 0.01 Gy/GBq | Absorbed Dose, Eyes, Mean (6 patients, cycle 1): 0.01 Gy/GBq | Absorbed Dose, Gallbladder wall, Mean (6 patients, cycle 1): 0.02 Gy/GBq | Absorbed Dose, Heart wall, Mean (6 patients, cycle 1): 0.01 Gy/GBq | Absorbed Dose, Kidneys, Mean (6 patients, cycle 1): 0.46 Gy/GBq | Absorbed Dose, Left colon, Mean (6 patients, cycle 1): 0.39 Gy/GBq | Absorbed Dose, Liver, Mean (6 patients, cycle 1): 0.03 Gy/GBq | Absorbed Dose, Lungs, Mean (6 patients, cycle 1): 0.01 Gy/GBq | Absorbed Dose, Osteogenic cells, Mean (6 patients, cycle 1): 0.02 Gy/GBq | Absorbed Dose, Pancreas, Mean (6 patients, cycle 1): 0.02 Gy/GBq | Absorbed Dose, Prostate, Mean (6 patients, cycle 1): 0.02 Gy/GBq | Absorbed Dose, Rectum, Mean (6 patients, cycle 1): 0.37 Gy/GBq | Absorbed Dose, Red Marrow, Mean (6 patients, cycle 1): 0.02 Gy/GBq | Absorbed Dose, Right colon, Mean (6 patients, cycle 1): 0.21 Gy/GBq | Absorbed Dose, Salivary Glands, Mean (6 patients, cycle 1): 0.10 Gy/GBq | Absorbed Dose, Small intestine, Mean (6 patients, cycle 1): 0.05 Gy/GBq | Absorbed Dose, Spleen, Mean (6 patients, cycle 1): 0.02 Gy/GBq | Absorbed Dose, Stomach Wall, Mean (6 patients, cycle 1): 0.01 Gy/GBq | Absorbed Dose, Testes, Mean (6 patients, cycle 1): 0.01 Gy/GBq | Absorbed Dose, Thymus, Mean (6 patients, cycle 1): 0.01 Gy/GBq | Absorbed Dose, Thyroid, Mean (6 patients, cycle 1): 0.01 Gy/GBq | Absorbed Dose, Total Body, Mean (6 patients, cycle 1): 0.02 Gy/GBq | Absorbed Dose, Urinary Bladder wall, Mean (6 patients, cycle 1): 0.37 Gy/GBq | absorbed dose, kidneys (6 patients, cycle 1): 0.46±0.23 Gy/GBq | absorbed dose, lacrimal glands (6 patients, cycle 1): 0.77±0.25 Gy/GBq | absorbed dose, left colon (6 patients, cycle 1): 0.39±0.32 Gy/GBq | absorbed dose, rectum (6 patients, cycle 1): 0.37±0.31 Gy/GBq | absorbed dose, right colon (6 patients, cycle 1): 0.21±0.17 Gy/GBq | absorbed dose, salivary glands (6 patients, cycle 1): 0.10±0.06 Gy/GBq | absorbed dose, urinary bladder wall (6 patients, cycle 1): 0.37±0.20 Gy/GBq | Whole-body time integrated activity coefficient, mean (6 patients, cycle 1, 7.4 GBq, SD 6.7): 16.6 h | projected cumulative absorbed dose to the kidneys after 6 cycles (6 patients): 20.4±10.2 Gy | projected cumulative absorbed dose to the kidneys after 6 cycles (6 patients, listed as 177Lu-PSMA-I&T): 20.4 Gy | risk of kidney toxicities with 6 treatment cycles (conclusion from dosimetry results): possible without the risk of kidney toxicities | Effective Dose Cycle 1 (individual patients (one per Subject ID)): 9.03E−02 mSv/MBq and 3.11E−02 mSv/MBq and 1.11E−01 mSv/MBq and 6.97E−02 mSv/MBq and 8.11E−02 mSv/MBq and 2.68E−02 mSv/MBq | Kidneys Absorbed Dose (Gy/GBq) (individual patients (one per Subject ID), cycle 1): 0.27 Gy/GBq and 0.22 Gy/GBq and 0.48 Gy/GBq and 0.64 Gy/GBq and 0.34 Gy/GBq and 0.81 Gy/GBq | Kidneys Absorbed Dose (Gy) (individual patients (one per Subject ID), cycle 1, actual injected dose): 2.03 Gy and 1.68 Gy and 3.62 Gy and 4.87 Gy and 2.56 Gy and 5.82 Gy | Kidneys Absorbed Dose (Gy) Assuming 7.4 GBq per cycle (individual patients (one per Subject ID), one cycle): 4.8 Gy and 2.5 Gy and 6.0 Gy and 2.0 Gy and 1.7 Gy and 3.6 Gy | Extrapolation of Absorbed Dose to 6 Cycles (Gy) Assuming 7.4 GBq per cycle (kidneys, individual patients (one per Subject ID)): 28.5 Gy and 15.0 Gy and 35.8 Gy and 11.8 Gy and 9.9 Gy and 21.3 Gy | Extrapolation of Absorbed Dose to 6 Cycles (Gy) Assuming 7.4 GBq per cycle, mean (kidneys, mean of 6 patients): 20.4 Gy | Kidneys Absorbed Dose (Gy), Mean (mean of 6 patients, cycle 1): 3.43 Gy | Kidneys Absorbed Dose (Gy/GBq), Mean (mean of 6 patients, cycle 1): 0.46 Gy/GBq | Whole Body TIAC (time integrated activity coefficient), Mean (mean of 6 patients, cycle 1): 16.6 h | Kidneys Absorbed Dose (Gy) Assuming 7.4 GBq per cycle, mean (mean of 6 patients, one cycle): 3.4 Gy
